Experimental data published in US8952024B2, “Herbicidal pyrimidone derivatives” (E I du Pont de Nemours and Company, priority 2009, dated 2015).

Experiments:
Assay type in all cases: in vivo
[1] = test system: giant foxtail (Setaria faberii); assay: Test A pre-/postemergence plant response
Summary of the method: (§1)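 Injury was scored visually after roughly ten days against untreated controls, 0 = no effect, 100 = complete control. Test chemicals in a surfactant-containing non-phytotoxic solvent were sprayed either onto soil preemergence or onto one- to two-leaf, 2–10 cm plants postemergence.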

[2] = test system: velvetleaf (Abutilon theophrasti); assay: Test A pre-/postemergence plant response
Summary of the method: as §1

[3] = test system: large crabgrass (Digitaria sanguinalis); assay: Test A pre-/postemergence plant response
Summary of the method: as §1

[4] = test system: morningglory (Ipomoea spp.); assay: Test A pre-/postemergence plant response
Summary of the method: as §1

corn (Zea mays) = assay: Test A pre-/postemergence plant response
Summary of the method: as §1

[5] = test system: wheat (Triticum aestivum); assay: Test A pre-/postemergence plant response
Summary of the method: as §1

[6] = test system: barnyardgrass (Echinochloa crus-galli); assay: Test A pre-/postemergence plant response
Summary of the method: as §1

[7] = test system: pigweed (Amaranthus retroflexus); assay: Test A pre-/postemergence plant response
Summary of the method: as §1

[8] = test system: barnyardgrass (Echinochloa crus-galli); assay: Test B flooded paddy test; settings: for Plant response rating, Flood, Barnyardgrass: 250 g ai/ha, flooded paddy test, visual rating on 0 to 100 scale (0 no effect, 100 complete control) after 13 to 15 days; for Plant response rating, Barnyardgrass: Flood (flooded paddy test), 13 to 15 days; for Barnyardgrass plant response rating: Flood, 31 g ai/ha, scale 0 to 100 (0 no effect, 100 complete control)
Summary of the method: (§2)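 Visual scores run from 0 (no effect) to 100 (complete control), assigned by comparison with controls 13 to 15 days after treatment. Test compounds went straight into water standing 3 cm above the soil, around plants at the 2-leaf stage kept in a greenhouse.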

rice (Oryza sativa) = assay: Test B flooded paddy test; settings: for Plant response rating, Flood, Rice: 250 g ai/ha, flooded paddy test, visual rating on 0 to 100 scale (0 no effect, 100 complete control) after 13 to 15 days; for Plant response rating, Rice: Flood (flooded paddy test), 13 to 15 days; for Rice plant response rating: Flood, 31 g ai/ha, scale 0 to 100 (0 no effect, 100 complete control)
Summary of the method: as §2

[9] = test system: ducksalad (Heteranthera limosa); assay: Test B flooded paddy test; settings: for Plant response rating, Flood, Ducksalad: 250 g ai/ha, flooded paddy test, visual rating on 0 to 100 scale (0 no effect, 100 complete control) after 13 to 15 days; for Plant response rating, Ducksalad: Flood (flooded paddy test), 13 to 15 days; for Ducksalad plant response rating: Flood, 31 g ai/ha, scale 0 to 100 (0 no effect, 100 complete control)
Summary of the method: as §2

[10] = test system: umbrella sedge (Cyperus difformis); assay: Test B flooded paddy test; settings: for Plant response rating, Flood, Sedge, Umbrella: 250 g ai/ha, flooded paddy test, visual rating on 0 to 100 scale (0 no effect, 100 complete control) after 13 to 15 days; for Plant response rating, Sedge, Umbrella: Flood (flooded paddy test), 13 to 15 days; for Sedge, Umbrella plant response rating: Flood, 31 g ai/ha, scale 0 to 100 (0 no effect, 100 complete control)
Summary of the method: as §2

[11] = Postemergence, 125 g ai/ha, 0 to 100 scale where 0 is no effect and 100 is complete control
[12] = Postemergence, 500 g ai/ha, visual injury, 0 to 100 scale (0 no effect, 100 complete control), approx. ten days
[13] = Preemergence, 125 g ai/ha, 0 to 100 scale, 0 = no effect, 100 = complete control
[14] = Preemergence, 500 g ai/ha, 0 to 100 scale, 0 = no effect, 100 = complete control
[15] = 62 g ai/ha, scale of 0 to 100 where 0 is no effect and 100 is complete control
[16] = Postemergence, 125 g ai/ha, visual injury, 0 to 100 scale (0 no effect, 100 complete control), approx. ten days
[17] = Preemergence, 125 g ai/ha, 0 to 100 scale where 0 is no effect and 100 is complete control, approximately ten days
[18] = 125 g ai/ha, scale 0 to 100, 0 is no effect, 100 is complete control
[19] = Postemergence, 500 g ai/ha, 0 to 100 scale, 0 = no effect, 100 = complete control, approx. ten days
[20] = Preemergence, 500 g ai/ha, visual injury, 0 to 100 scale (0 no effect, 100 complete control), approx. ten days

O=C1CCCC(O)=C1C(=O)c1cnc(-c2cccc(Br)c2)n(C2CCCCC2)c1=O [Compound 206]
90: Foxtail, Giant plant response rating [1, 12] | Plant response rating, Barnyardgrass [6, 11] | Plant response rating, Pigweed [7, 11] | Plant response rating, Flood, Ducksalad [9]
80: Plant response rating, Pigweed [7, 14]
70: Plant response rating, Ducksalad [9, 15]
10: Plant response rating, Crabgrass, Large [3, 13]
20: Plant response rating, Barnyardgrass [6, 14] | Plant response rating, Flood, Rice (rice (Oryza sativa))
100: Plant response rating, Velvetleaf [2, 11] | Velvetleaf plant response rating [2, 12] | Crabgrass, Large plant response rating [3, 12] | Plant response rating, Morningglory [4, 11] | Morningglory plant response rating [4, 12] | Barnyardgrass plant response rating [6, 12] | Pigweed plant response rating [7, 12]
50: Plant response rating, Foxtail, Giant [1, 11]
60: Plant response rating, Foxtail, Giant [1, 14] | Plant response rating, Velvetleaf [2, 14] | Plant response rating, Crabgrass, Large [3, 11] | Plant response rating, Crabgrass, Large [3, 14] | Plant response rating, Sedge, Umbrella [10, 15]
0: Plant response rating, Foxtail, Giant [1, 13] | Plant response rating, Velvetleaf [2, 13] | Plant response rating, Morningglory [4, 13] | Plant response rating, Morningglory [4, 14] | Plant response rating, Corn (corn (Zea mays); [11]) | Corn plant response rating (corn (Zea mays); [12]) | Plant response rating, Corn (corn (Zea mays); [13]) | Plant response rating, Corn (corn (Zea mays); [14]) | Plant response rating, Wheat [5, 11] | Wheat plant response rating [5, 12] | Plant response rating, Wheat [5, 13] | Plant response rating, Wheat [5, 14] | Plant response rating, Barnyardgrass [6, 13] | Plant response rating, Flood, Barnyardgrass [8] | Plant response rating, Barnyardgrass [8, 15] | Plant response rating, Rice (rice (Oryza sativa); [15])
30: Plant response rating, Pigweed [7, 13]
85: Plant response rating, Flood, Sedge, Umbrella [10]

C#Cc1ccc(-c2ncc(C(=O)C3=C(O)C4CCC(C4)C3=O)c(=O)n2C2CCCCC2)cc1 (stereo not drawn) [Compound 254]
15: Plant response rating, Flood, Barnyardgrass [8]
85: Plant response rating, Ducksalad [9, 15] | Plant response rating, Ducksalad [9, 18]
30: Plant response rating, Foxtail, Giant [1, 14] | Sedge, Umbrella plant response rating [10]
10: Plant response rating, Foxtail, Giant [1, 16] | Corn plant response rating (corn (Zea mays); [12]) | Plant response rating, Barnyardgrass [6, 14] | Plant response rating, Barnyardgrass [8, 18]
70: Crabgrass, Large plant response rating [3, 12]
50: Foxtail, Giant plant response rating [1, 12] | Plant response rating, Velvetleaf [2, 16] | Plant response rating, Crabgrass, Large [3, 14] | Morningglory plant response rating [4, 12] | Plant response rating, Sedge, Umbrella [10, 15]
75: Plant response rating, Sedge, Umbrella [10, 18]
45: Ducksalad plant response rating [9]
100: Plant response rating, Flood, Ducksalad [9]
20: Plant response rating, Velvetleaf [2, 14] | Plant response rating, Crabgrass, Large [3, 11] | Plant response rating, Morningglory [4, 16]
60: Plant response rating, Pigweed [7, 16]
80: Plant response rating, Flood, Sedge, Umbrella [10]
90: Velvetleaf plant response rating [2, 12] | Barnyardgrass plant response rating [6, 12] | Pigweed plant response rating [7, 12]
0: Plant response rating, Foxtail, Giant [1, 17] | Plant response rating, Velvetleaf [2, 17] | Plant response rating, Crabgrass, Large [3, 17] | Plant response rating, Morningglory [4, 17] | Plant response rating, Corn (corn (Zea mays); [11]) | Plant response rating, Corn (corn (Zea mays); [17]) | Plant response rating, Corn (corn (Zea mays); [14]) | Plant response rating, Wheat [5, 16] | Wheat plant response rating [5, 12] | Plant response rating, Wheat [5, 17] | Plant response rating, Wheat [5, 14] | Plant response rating, Barnyardgrass [6, 11] | Plant response rating, Barnyardgrass [6, 17] | Plant response rating, Pigweed [7, 17] | Plant response rating, Pigweed [7, 14] | Plant response rating, Barnyardgrass [8, 15] | Barnyardgrass plant response rating [8] | Plant response rating, Flood, Rice (rice (Oryza sativa)) | Plant response rating, Rice (rice (Oryza sativa); [15]) | Plant response rating, Rice (rice (Oryza sativa); [18]) | Rice plant response rating (rice (Oryza sativa))

Cc1cc(-n2c(-c3cccc(Br)c3)ncc(C(=O)C3=C(O)CCCC3=O)c2=O)ccc1F [Compound 132]
100: Plant response rating, Velvetleaf [2, 11] | Plant response rating, Velvetleaf [2, 19] | Plant response rating, Crabgrass, Large [3, 20] | Plant response rating, Barnyardgrass [6, 20] | Plant response rating, Flood, Ducksalad [9] | Plant response rating, Flood, Sedge, Umbrella [10]
20: Plant response rating, Foxtail, Giant [1, 13] | Plant response rating, Crabgrass, Large [3, 11] | Plant response rating, Corn (corn (Zea mays); [20])
60: Plant response rating, Pigweed [7, 11] | Plant response rating, Sedge, Umbrella [10, 18]
50: Plant response rating, Velvetleaf [2, 13] | Plant response rating, Crabgrass, Large [3, 13] | Plant response rating, Ducksalad [9, 15]
30: Plant response rating, Morningglory [4, 20] | Plant response rating, Wheat [5, 19] | Plant response rating, Flood, Barnyardgrass [8]
0: Plant response rating, Foxtail, Giant [1, 11] | Plant response rating, Morningglory [4, 13] | Plant response rating, Corn (corn (Zea mays); [11]) | Plant response rating, Corn (corn (Zea mays); [13]) | Plant response rating, Wheat [5, 11] | Plant response rating, Wheat [5, 13] | Plant response rating, Barnyardgrass [8, 15] | Plant response rating, Barnyardgrass [8, 18] | Barnyardgrass plant response rating [8] | Plant response rating, Flood, Rice (rice (Oryza sativa)) | Plant response rating, Rice (rice (Oryza sativa); [15]) | Plant response rating, Rice (rice (Oryza sativa); [18]) | Rice plant response rating (rice (Oryza sativa)) | Ducksalad plant response rating [9] | Plant response rating, Sedge, Umbrella [10, 15] | Sedge, Umbrella plant response rating [10]
10: Plant response rating, Wheat [5, 20] | Plant response rating, Barnyardgrass [6, 11] | Plant response rating, Barnyardgrass [6, 13] | Plant response rating, Pigweed [7, 13]
40: Plant response rating, Corn (corn (Zea mays); [19])
90: Plant response rating, Foxtail, Giant [1, 20] | Plant response rating, Morningglory [4, 11] | Plant response rating, Morningglory [4, 19] | Plant response rating, Barnyardgrass [6, 19] | Plant response rating, Pigweed [7, 19]
70: Plant response rating, Foxtail, Giant [1, 19] | Plant response rating, Crabgrass, Large [3, 19]
80: Plant response rating, Velvetleaf [2, 20] | Plant response rating, Pigweed [7, 20] | Plant response rating, Ducksalad [9, 18]
